The record followed here is patent US20250235501A1, “Methods and Compositions for Treating or Preventing Neurological Injury or Neurological Disorders” (University of Connecticut, priority 2024, published 2025).

This experiment deals with NMDARs (GluN1a, GluN2a, GluN2b). As to the kind of experiment: Surface expression of NMDARs in HEK293T cells co-transfected with NMDARs and TRPM2 (WB). The experiment is classed as cell-based, human. The conditions noted are these: 10 μM peptide overnight; NMDARs/TRPM2 vs NMDARs/EGFP. The method, then: FIGS. 4K-4N show the surface expression of NMDARs in HEK-293T cells co-transfected with TRPM2 or EGFP with the treatment of PKC activator PMA (FIG. 4K) and inhibitor Stausporine (FIG. 4L). Membrane (Mem) and cytocol (Cyto) NMDARs were analyzed and averaged from 3 independent experiments with 1 μM PMA treatment (FIG. 4N) or 1 μM Stausporine treatment (FIG. 4L) for overnight. Pan-cadherin and β-tubulin were loading controls for membrane and cytosol protein, respectively (*, p<0.05, **, p<0.01, ***, p<0.001, unpaired t-test, mean±SEM, n=3/group).
FIGS. 5C-5F effects of TAT-EE3 on surface expression of NMDARs. HEK293T cells co-transfected with NMDARs with TRPM2 (+M2) or EGFP vector (Con) were treated with 10 μM TAT-SC (FIG. 5C) or TAT-EE3 (FIG. 5D) overnight. Membrane (Mem) and cytosol (Cyto) proteins of NMDARs in TAT-SC (FIG. 5E) and TAT-EE3 (FIG. 5F) treated groups were assessed by WBs and analyzed in reference to Pan-cadherin or β-tubulin (**, p<0.01, ***, p<0.001, unpaired t-test, mean±SEM). All the results were replicated in at least 3 independent experiments.
Pan-cadherin and β-tubulin were used as loading control for membrane and cytosolic protein extraction.
were ordered from GenScript Biotech, and dissolved in PBS to make a stock concentration at 10 mM. HEK-293T cells or isolated neurons were treated with TAT-SC or TAT-EE3 at a concentration of 10 μM for at least 8 h prior to use. Mice were injected with TAT-SC or TAT-EE3 intraperitoneally (ip) at a dose of 100 nmol/kg.
HEK293T cells were cultured in Dulbecco's Modified Eagle's medium (DMEM) (Thermal Fisher Scientific, 12100-038) supplemented with 10% BGS (HyClone, SH30541.03) and 0.5% penicillin/streptomycin (Thermal Fisher Scientific, 15140-122) at 37° C. and 5% CO2. 8 h prior to transfection, culture medium was replaced with DMEM supplemented only with 2.5% BGS. Cells were transfected when at a confluence about 80-90% using Lipofectamine® 3000 Transfection Kit (Thermal Fisher Scientific, 2232162) based on instruction.
NP-40/Triton lysis buffer ([…], 1% Triton™ X-100, 150 mM NaCl, 1 mM EDTA, 50 mM Tris, pH=8.0) containing proteinase inhibitors and phosphatase inhibitors was used to lyse both cultured cells and frozen brain tissue. Surface protein was extracted using Pierce® Cell Surface Protein Isolation Kit (Thermal Fisher Scientific, 89881) in transfected HEK-293T cells, and using ProteoExtract™ Native Membrane Protein Extraction Kit (Calbiochem, 444810) in brain tissue based on instructions. […] Protein concentration was measured using Pierce™ Rapid Gold BCA Protein Assay Kit.
30-50 μg of total protein was loaded and separated proteins were transferred to Nitrocellulose membranes. […] Band intensity was quantified using ImageJ software and normalized with appropriate loading controls.

“TAT-EE3: membrane permeable disrupting peptide, sequence YGRKKRRQRRREEDTDSSEEMLALAEE (SEQ ID NO: 4)”: the “enhancement of NMDAR surface expression by TRPM2” value was “eliminated the enhancement”.
